These results are taken from paper PMC10531093, “First-Generation Synthetic Cathinones Produce Arrhythmia in Zebrafish Eleutheroembryos: A New Approach Methodology for New Psychoactive Substances Cardiotoxicity Evaluation” (International Journal of Molecular Sciences, 2023).

Holding throughout (assay type): in vivo, Danio rerio
In series [1] the test system is zebrafish embryos. Put plainly: AV block 2:1 and ventricular fibrillation after 2 h exposure. The procedure: (§1) Experiments were conducted to assess lethality after 24 h exposure and quantify drug-induced effects on heart rate after 2 h exposure. Experiments were performed on day 4 of zebrafish development (4 dpf). On the day of the experiment, eleutheroembryos (hereafter embryos) were distributed into a 6-well plate (Thermo-Fisher Scientific, Madrid, Spain) by adding 12 embryos into each well with 5 mL of test solution. Embryos were exposed by immersion at 20 min intervals so that they could be mounted individually by ensuring equal exposure times in all groups. Each drug was tested at different concentrations (ranging from 1 to 1000 µM) in parallel with a control group (Goods buffer TAPS alone). The concentration range used was based on previous experiments with MDMA [58].
(§2) To avoid the movement of zebrafish embryos during recording, embryos were anesthetized by adding tricaine to exposure medium (0.08 mg/mL) and mounted in 3% methylcellulose (without tricaine) on double depression slides (Paul Marienfeld GmbH & Co. KG, Lauda-Königshofen, Germany) after drug exposure time. […] The slide was then transferred to an inverted light microscope (Nikon eclipse TS100, at 400×/N.A. 0.55, Nikon Instruments Inc., Amsterdam, The Netherlands) fitted with a high-speed video camera (Exilim, CASIO, Shibuya City, Japan). Sequential images of the heart (240 frames per second (fps)) were obtained with the embryo positioned on its side from the lateral position and with a duration of 10 s. Embryos were recorded one at a time, and all experiments were consistently conducted at the same time of day, controlling room temperature variation throughout video recordings.
(§3) Statistical analyses were conducted using GraphPad Prism 9 software. For all endpoints reported as means of mean values, data were considered to have a normal distribution according to the central limit theorem (by which means of random samples from any distribution will themselves have a normal distribution). Statistical comparison was performed by two-way ANOVA, followed by Tukey’s test, which was conducted to assess the effect of concentration and chamber (atrium–ventricle) on heart frequency or AI. Fisher’s Exact test was used for the statistical analysis of the proportion of embryos showing AV block and ventricular fibrillation. Students t-test was used to analyze the ventricular beat rate of zebrafish embryos exposed to the Cm.

Series [2] is described as follows: Twenty-four-hour acute toxicity test (lethality and abnormalities, 4 to 5 dpf). As to conditions: zebrafish (Danio rerio), in vivo, other: immersion in test solution; 24 h exposure, 4 to 5 dpf, TAPS buffer pH 8.6; read-out: LC50 (CI95). The arrangement: Embryos with spasms: dose or concentration left out as unconfirmed. The procedure:
as §1
(§4) Embryos at 4 dpf were distributed to 6-well plates, and 10 embryos were placed into each well with 5 mL of drug test solution. Plates were incubated at 26 ± 1 °C under a 14:10 light:dark cycle for 24 h. Following 24 h exposure, endpoints used for assessing lethality (coagulation or lack of heartbeat) and morphological/functional abnormalities were recorded for each treatment group. Each drug was tested at different concentrations, and at least three independent experiments were performed.
(§5) Concentration–response curves were derived from 2 h exposures and the 24 h acute toxicity test as effective concentrations 50 (EC50) and lethal concentrations 50 (LC50), respectively. Concentration–response curves were obtained with a sigmoidal concentration–response equation (Hill equation) using the package drc in R software (v.R-3.6.1).

For series [3], the system named is zebrafish embryos. The series is described as above. The arrangement: Embryos with spasms: dose or concentration left out as unconfirmed. As to conditions: 24 h exposure between 4 and 5 dpf; for Drug-induced abnormalities: all tested concentrations. The procedure: as §1, §4, §5
The test system of series [4] is zebrafish embryos. Put plainly: Tachycardic effects: beat rate after 10 min exposure at 10 µM, and ventricular beat rate at Cm after 2 h.
For series [5], the system named is zebrafish embryos. Put plainly: Chamber-specific heart rate (atrium, ventricle) after 2 h exposure, video recording. As to conditions: for pEC50: Danio rerio, 4 dpf; for Lowest concentration inducing ventricular bradycardia (LOAEC): significant decrease in ventricular heart rate. The procedure: as §1, §2
To quantify atrial and ventricular heart rates in zebrafish, video recordings were analyzed with ImageJ v.1.53t. A plot of dynamic pixels was obtained by selecting an area of the heart ventricle or atrium with a high deviation of pixel intensity by means of the z-projection function (see Figure S4 for representative selection of heart ventricle and atrium area). The frequency as frames/beat was obtained by analyzing the waveform of dynamic pixels by the Fast Fourier Transform algorithm (FFT) using the “spectrum” function in R. Then, the resulting periodogram provides frequency information in cycles per frame, so to calculate the heart rate frequency (beats/min, bpm), the frequency values were multiplied by the frame rate (240 fps) to convert cycles per frame to cycles per second (Hz) and then multiplied by 60 to convert from Hz to bpm.
as §5, §3

In series [6] the test system is zebrafish embryos. Put plainly: Arrhythmicity index (AI, heart rate variability) after 2 h exposure. Particulars: 500 µM. The procedure:
as §1
To avoid the movement of zebrafish embryos during recording, embryos were anesthetized by adding tricaine to exposure medium (0.08 mg/mL) and mounted in 3% methylcellulose (without tricaine) on double depression slides (Paul Marienfeld GmbH & Co. KG, Lauda-Königshofen, Germany) after drug exposure time. […] Embryos were recorded one at a time, and all experiments were consistently conducted at the same time of day, controlling room temperature variation throughout video recordings.
Heartbeat variability was determined by analysis of the interbeat intervals (heart period) (see Figure 7), similar to the analysis described in [61]. […]

Setting [7] is: atrial bradycardia, read-out: EC50 (CI95) ATRIUM heart rate.
[8] abbreviates: ventricular bradycardia, read-out: EC50 (CI95) VENTRICLE heart rate.

Structures are written as SMILES. pEC50: −log10 of the molar value. Where two headings read alike, the source gives them in different places. Bounds are passed on as bounds.

As usually defined, the LC50 is the concentration lethal to half of the exposed cells or organisms. The pEC50 is the negative decadic logarithm of the EC50, by convention in mol/L.

As to `COC(=O)[C@H]1[C@@H](OC(=O)c2ccccc2)C[C@@H]2CC[C@H]1N2C` [Cocaine, cocaine], in the series on zebrafish embryos [1], the “Lowest concentration provoking AV block” value is listed as 50 µM. Moreover, the “Embryos with ventricular fibrillation” value in the series on zebrafish embryos [1] (500 µM) is listed as “all embryos”. Besides, in series [2], the median lethal concentration (LC50) at 24 h came out at 173 µM. For the same molecule, in the series on zebrafish embryos [3], the Drug-induced abnormalities entry is “No abnormalities observed”. Moreover, in the series with zebrafish embryos [4], the “Beat rate after shorter exposure time” value is listed as “significantly increased beat rates”. Moreover, the pEC50 in the series on zebrafish embryos [5] (setting [7]) was < 3.30; with zebrafish embryos [5] (setting [8]) it was 4.01. In addition, in the series with zebrafish embryos [5], the “Lowest concentration inducing ventricular bradycardia (LOAEC)” value was determined as 50 µM. For the same molecule, the Ventricle heartbeat result in the series with zebrafish embryos [6] is “no ventricle heartbeat”.
In the case of `CNC(C)Cc1ccc2c(c1)OCO2` (stereo not shown) [MDMA, 3,4-methylenedioxy-methamphetamine], the “Lowest concentration provoking AV block” value in the series on zebrafish embryos [1] is reported as 500 µM. The LC50 at 24 h in series [2] amounted to 180 µM. Also, the results for the pEC50 in the series with zebrafish embryos [5] (setting [7]) and with zebrafish embryos [5] (setting [8]) were 3.30 and 3.38, respectively. For the same molecule, the “Lowest concentration inducing ventricular bradycardia (LOAEC)” value with zebrafish embryos [5] stood at 250 µM.
In the case of `CCCC(C(=O)c1ccc2c(c1)OCO2)N1CCCC1` (stereo not shown) [MDPV, 3,4-methylenedioxy-pyrovalerone], in the series on zebrafish embryos [1], the “Lowest concentration provoking AV block” value amounted to 20 µM. The “Embryos with ventricular fibrillation (AV ratio > 2.5)” value in the series on zebrafish embryos [1] (50 µM) is on record as “more than half of the embryos tested”. The LC50 at 24 h in series [2] was found to be 135 µM. In addition, the Embryos with spasms in the series with zebrafish embryos [3] is reported as 21%. In addition, in the series with zebrafish embryos [5], the “Fold more potent in inducing bradycardia in the ventricle than in the atria (EC50)” value was 3.4 fold. Also, the pEC50 is 3.96 with zebrafish embryos [5] (setting [7]) and 4.49 with zebrafish embryos [5] (setting [8]). Besides, the “Lowest concentration inducing ventricular bradycardia (LOAEC)” value in the series with zebrafish embryos [5] turned out to be 20 µM.
Turning to `CNC(C)C(=O)c1ccc(C)cc1` (stereo not shown) [Mephedrone, mephedrone], in the series on zebrafish embryos [1], the “Lowest concentration provoking AV block” value was determined as 500 µM. The LC50 at 24 h in series [2] amounted to 147 µM. For the same molecule, in the series on zebrafish embryos [3], the Drug-induced abnormalities entry is recorded as “No abnormalities observed”. In addition, the pEC50 is 3.22 in the series on zebrafish embryos [5] (setting [7]) and 3.39 in the series with zebrafish embryos [5] (setting [8]). Also, the “Lowest concentration inducing ventricular bradycardia (LOAEC)” value in the series with zebrafish embryos [5] is 250 µM.
In the case of `CNC(C)C(=O)c1ccc2c(c1)OCO2` (stereo not shown) [Methylone, methylone], in the series with zebrafish embryos [1], the “Lowest concentration provoking AV block” value amounted to 250 µM. Further, the LC50 at 24 h in series [2] was determined as 127 µM. Also, the Drug-induced abnormalities entry with zebrafish embryos [3] is listed as “No abnormalities observed”. Besides, the pEC50 in the series on zebrafish embryos [5] (setting [7]) is < 3.00; in the series on zebrafish embryos [5] (setting [8]), 3.28. For the same molecule, in the series on zebrafish embryos [5], the “Lowest concentration inducing ventricular bradycardia (LOAEC)” value was 250 µM.
